According to ChEMBL document CHEMBL1201862, “PubChem BioAssay data set” (2004):
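In this assay, cells in 96-well plates receive the compound at five concentrations for 48 hours. Endpoints are linearly interpolated between the surrounding concentrations. The concentration for 50% growth inhibition is given as GI50.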 Activity calls are given as the source filed them. No stated cut-off is given here; in the data, active = GI50 up to about 1.1 µM and inactive = higher.

Legend:
Assay in all cases: DTP human tumour cell line panel, 48 h
A549 = tested on: A549
Malme-3M = tested on: Malme-3M
A498 = tested on: A498
OVCAR-8 = tested on: OVCAR-8
EKVX = tested on: EKVX
CCRF-CEM = tested on: CCRF-CEM
NCI-H226 = tested on: NCI-H226
T47D = tested on: T47D
HCT-15 = tested on: HCT-15
SNB-19 = tested on: SNB-19
TK-10 = tested on: TK-10
UO-31 = tested on: UO-31
HCT-116 = tested on: HCT-116
LOX IMVI = tested on: LOX IMVI
U-251 = tested on: U-251
MDA-MB-231 = tested on: MDA-MB-231
OVCAR-5 = tested on: OVCAR-5
SW-620 = tested on: SW-620
DU-145 = tested on: DU-145
SNB-75 = tested on: SNB-75

SMILES | GI50 (A549) | GI50 (Malme-3M) | GI50 (A498) | GI50 (OVCAR-8) | GI50 (EKVX) | GI50 (CCRF-CEM) | GI50 (NCI-H226) | GI50 (T47D) | GI50 (HCT-15) [µM] | GI50 (SNB-19) | GI50 (TK-10) | GI50 (UO-31) | GI50 (HCT-116) | GI50 (LOX IMVI) | GI50 (U-251) | GI50 (MDA-MB-231) | GI50 (OVCAR-5) | GI50 (SW-620) | GI50 (DU-145) | GI50 (SNB-75)
O=C1Nc2ccccc2/C1=N/NS(=O)(=O)c1ccc(C(=O)O)cc1 | > 100 µM (inactive) | > 100 µM (inactive) | > 100 µM (inactive) | > 100 µM (inactive) | 74.5 µM (inactive) | > 100 µM (inactive) | > 100 µM (inactive) | > 100 µM (inactive) | > 100 | > 100 µM (inactive) | > 100 µM (inactive) | > 100 µM (inactive) | > 100 µM (inactive) | > 100 µM (inactive) | > 100 µM (inactive) | > 100 µM (inactive) | > 100 µM (inactive) | > 100 µM (inactive) | > 100 µM (inactive) | > 100 µM (inactive)
C=CC[C@H]1[C@@H](O[Si](C)(C)C(C)(C)C)[C@H](n2ccc(=O)[nH]c2=O)O[C@@H]1CO[Si](C)(C)C(C)(C)C | 1.85 µM (inactive) | 2.89 µM (inactive) | 3.01 µM (inactive) | 1.87 µM (inactive) | 1.67 µM (inactive) | 2.52 µM (inactive) | 4.11 µM (inactive) | 2.61 µM (inactive) | 1.77 | 2.39 µM (inactive) | 2.97 µM (inactive) | 1.69 µM (inactive) | 1.47 µM (inactive) | 1.63 µM (inactive) | 2.09 µM (inactive) | 1.96 µM (inactive) | 1.5 µM (inactive) | 1.82 µM (inactive) | 2.09 µM (inactive) | 1.34 µM (inactive)
COC(=O)c1c(C)c2c(c(C)c1C(=O)OC)-c1c(C)ccc3ccc(C)c-2c13 | 37.9 µM (inactive) | > 55.1 µM (inactive) | > 72.6 µM (inactive) | 47.1 µM (inactive) | 66.4 µM (inactive) | 11.4 µM (inactive) | > 100 µM (inactive) | 18.4 µM (inactive) | 13 | > 87.5 µM (inactive) | > 65.8 µM (inactive) | 47.8 µM (inactive) | 50.1 µM (inactive) | 12.1 µM (inactive) | 58.9 µM (inactive) | 3.94 µM (inactive) | > 68.7 µM (inactive) | 32.9 µM (inactive) | > 100 µM (inactive) | 27.8 µM (inactive)
CC(=O)NC1=C(C)C(=O)c2c(nc3n2CCC3OC(=O)c2ccccc2)C1=N (stereo not given) | 3.18 µM (inactive) | 1.13 µM (inactive) | 1.96 µM (inactive) | 1.04 µM (active) | 2.55 µM (inactive) | 1.58 µM (inactive) | 4.24 µM (inactive) | 1.85 µM (inactive) | 2.72 | 3.48 µM (inactive) | 3.5 µM (inactive) | 2.04 µM (inactive) | 3.15 µM (inactive) | 0.406 µM (active) | 3.22 µM (inactive) | 2.07 µM (inactive) | 2.98 µM (inactive) | 1.63 µM (inactive) | 1.97 µM (inactive) | 2.37 µM (inactive)
